# Key:
# femoral artery = test: Vasodilator activity, femoral artery (technique of perfused paw); type: in vivo; parameters: key: O: no action; +: slight activity; ++: effect equal to half the effect of papaverine; +++: effect equal to that of papaverine; ++++: effect higher than that of papaverine; settings: intra-arterial, 30 mg/kg, anaesthetized dog, vs papaverine at same dose
# Method: (3) The vasodilator activity was measured at the level of femoral artery on anaesthetized dog (technique of perfused paw). The tested substances were given intra-arterially at the rate of 30 mg/kg. Results are expressed with respect to papaverine tested at the same dose.
# ++: effect equal to half the effect of papaverine.
# +++: effect equal to that of papaverine.
# ++++: effect higher than that of papaverine.
# [1] = test system: guinea-pig ileum (histamine contractions); test: Antispasmodic activity in vitro, contractions caused by histamine; settings: added 15 minutes before spasm-producing agent
# Method: (§1) (4) The antispasmodic activity was measured in vitro, on guinea-pig ileum, the contractions of which were caused by histammne (Hist.), acetylcholine (Achol) or barium chloride (BaCl2). The tested products were added to perfusion bath 15 minutes before the spasm-producing agents.
# (§2) The dose is given in micograms (μg) per ml of bath causing complete spasm inhibition.
# [2] = test system: guinea-pig ileum (barium chloride contractions); test: Antispasmodic activity in vitro, contractions caused by barium chloride; settings: added 15 minutes before spasm-producing agent
# Method: as §1, §2
# [3] = test system: guinea-pig ileum (acetylcholine contractions); test: Antispasmodic activity in vitro, contractions caused by acetylcholine; settings: added 15 minutes before spasm-producing agent
# Method: as §1, §2
# [4] = test system: unanaesthetized, hypertension-suffering rat; test: Antihypertensive activity (systolic arterial pressure), oral; type: in vivo; settings: 60 mg/kg, hypertensive rat, 3 hours
# Method: (2) The antihypertensive activity was measured on unanaesthetized, hypertension-suffering rat. The tested substances were orally given at a rate of 60 mg/kg. The systolic arterial pressure was measured every 30 minutes for 2 hours before and for 3 hours after the tested product was given. Results are expressed as follows: […]
# O: no reduction of arterial pressure.
# +: reduction lower than 10 mm Hg.
# ++: reduction of 10 to 20 mm Hg.
# +++: reduction higher than 20 mm Hg.
# [5] = Acute toxicity, oral, LD50 (Litchfield and Wilcoxon); settings: mouse, in vivo, fasted male mice, confidence limits p=95% in brackets
# Method: (1) The acute toxicity was determined on fasted male mice. The tested substances were orally administered and LD50 values (lethal dose for 50% of animals) were calculated according to the method of Litchfield and Wilcoxon (J. Pharmacol. exp. Ther. 96, 94-113, 1949). These LD50 values are given in mg/kg and also, when possible, with their confidence limits for p=95%.
SMILES,VASODILATOR ACTIVITY (femoral artery),ANTISPASMODIC ACTIVITY HIST. (dose causing complete spasm inhibition) [1] [μg per ml],ANTISPASMODIC ACTIVITY BaCl2 (dose causing complete spasm inhibition) [2] [μg per ml],ANTISPASMODIC ACTIVITY ACHOL (dose causing complete spasm inhibition) [3] [μg per ml],ANTIHYPERTENSIVE ACTIVITY [4],LD50 [5] [mg/kg]
CC(NC1CCCCCCC1)C(O)c1ccc2c(c1)CCCS2 (stereo not drawn) [No 27],++,1.7,1.7,1.7,–,–
CC(NCCc1ccccc1)C(O)c1ccc2c(c1)CCCS2 (stereo not drawn) [No 13],++,3.3,3.3,0.8,–,–
CC1CSc2ccc(C(O)C(C)NCCOc3ccccc3)cc2C1 (stereo not drawn) [No 49],+++,3.3,–,1.7,+++ (reduction higher than 20 mm Hg),~3700
CC1CSc2ccc(C(O)C(C)NCCCCc3ccccc3)cc21 (stereo not drawn) [No 109],+++,0.17,–,0.8,+++ (reduction higher than 20 mm Hg),~2750
CC(NCCOc1ccc(Cl)cc1)C(O)c1ccc2c(c1)CCCS2 (stereo not drawn) [No 40],+++,1.7,–,1.7,+++ (reduction higher than 20 mm Hg),> 4000
CC(NCCc1ccccc1)C(O)c1ccc2c(c1)CCCCS2 (stereo not drawn) [No 14],+++,1.7,1.7,3.3,–,–
CC(NCCCCc1ccccc1)C(O)c1ccc2c(c1)CCC2 (stereo not drawn) [No 163],++,1.7,–,0.8,+++ (reduction higher than 20 mm Hg),800
CC(NCCOc1ccccc1)C(O)c1ccc2c(c1)CCS2 (stereo not drawn) [No 47],++ ++,1.7,–,1.7,++ (reduction of 10 to 20 mm Hg),> 4000
CCCCCCCCNC(C)C(O)c1ccc2c(c1)CC(C)O2 (stereo not drawn) [No 55],+++,3.3,–,8.3,+++ (reduction higher than 20 mm Hg),350
CC(C)C(=O)OC(c1ccc2c(c1)CCS2)C(C)NCCCCc1ccccc1 (stereo not drawn) [No 117],++++,1.7,–,0.8,+++ (reduction higher than 20 mm Hg),2200
CC(NCCCCc1ccccc1)C(O)c1ccc2c(c1)SCCS2 (stereo not drawn) [No 100],++++,8.3,–,1.7,+++ (reduction higher than 20 mm Hg),> 2000
CC(NCCCc1ccccc1)C(O)c1ccc2c(c1)CCS2 (stereo not drawn) [No 57],+++,1.7,–,1.7,++ (reduction of 10 to 20 mm Hg),> 2000
CC1Cc2cc(C(O)C(C)NCCCC(=O)c3ccc(F)cc3)ccc2O1 (stereo not drawn) [No 105],+++,3.3,–,3.3,+++ (reduction higher than 20 mm Hg),~360
CCC(NCCCCc1ccccc1)C(O)c1ccc2c(c1)CCS2 (stereo not drawn) [No 115],+++,0.8,–,1.7,+++ (reduction higher than 20 mm Hg),~2500
CC(NCCCCc1ccc(Cl)cc1)C(O)c1ccc2c(c1)CCS2 (stereo not drawn) [No 29],++,1.7,–,1.7,+++ (reduction higher than 20 mm Hg),1750
CCCCCCCCNC(C)C(O)c1ccc2c(c1)CCC2 (stereo not drawn) [No 164],+++,0.8,–,0.8,++ (reduction of 10 to 20 mm Hg),1750
CC(NCCCCCc1ccccc1)C(O)c1ccc2c(c1)CCCS2 (stereo not drawn) [No 8],++++,0.8,0.8,1.7,–,–
CC1CSc2ccc(C(O)C(C)NCCCCc3ccccc3)cc2C1 (stereo not drawn) [No 45],+++,0.8,–,0.8,+ (reduction lower than 10 mm Hg),> 4000
CCCCSCCCNC(C)C(O)c1ccc2c(c1)CCCS2 (stereo not drawn) [No 80],++,0.8,–,1.7,+++ (reduction higher than 20 mm Hg),5000
CC1Cc2cc(C(O)C(C)NCCCCc3ccc(Cl)cc3)ccc2S1 (stereo not drawn) [No 68],+++,3.3,–,0.8,+++ (reduction higher than 20 mm Hg),< 500
Cc1ccc(OCCNC(C)C(O)c2ccc3c(c2)CCCS3)cc1 (stereo not drawn) [No 54],+++,3.3,–,3.3,++ (reduction of 10 to 20 mm Hg),> 4000
CCC(=O)c1ccc(OCCNC(C)C(O)c2ccc3c(c2)CC(C)S3)cc1 (stereo not drawn) [No 116],++,0.17,–,3.3,++ (reduction of 10 to 20 mm Hg),> 4000
CC1Cc2cc(C(O)C(C)NCCCCc3ccccc3)ccc2O1 (stereo not drawn) [No 70],++,1.7,–,1.7,+++ (reduction higher than 20 mm Hg),285
CC(NCCCSc1ccccc1)C(O)c1ccc2c(c1)CCCCS2 (stereo not drawn) [No 39],+++,1.7,–,0.8,++ (reduction of 10 to 20 mm Hg),> 4000
CC(NCC(c1ccccc1)c1ccccc1)C(O)c1ccc2c(c1)CCCS2 (stereo not drawn) [No 21],+++,0.33,1.7,0.33,–,–
CC(NCCOc1ccccc1)C(O)c1ccc2c(c1)CCCCS2 (stereo not drawn) [No 36],+++,3.3,–,1.7,+++ (reduction higher than 20 mm Hg),> 4000
CC(NCCCC(=O)c1ccc(F)cc1)C(O)c1ccc2c(c1)CCS2 (stereo not drawn) [No 111],+++,0.3,–,0.8,++ (reduction of 10 to 20 mm Hg),~700
CC(C(O)c1ccc2c(c1)CCC2)N1CCC(Cc2ccccc2)CC1 (stereo not drawn) [No 172],++++,0.08,–,1.7,+++ (reduction higher than 20 mm Hg),1900
